Target: T1, PH ([325-451]ASAP1) (Mus musculus, UniProt Q9QWY8)
T1 sequence (Q9QWY8 325-451): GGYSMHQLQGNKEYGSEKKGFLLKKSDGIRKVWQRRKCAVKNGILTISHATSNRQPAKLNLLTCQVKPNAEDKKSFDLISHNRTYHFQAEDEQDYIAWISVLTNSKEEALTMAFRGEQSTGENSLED
Experiment: isothermal titration calorimetry
Assay type: binding

## O=P(O)(O)O[C@@H]1[C@H](O)[C@H](O)[C@@H](OP(=O)(O)O)[C@H](OP(=O)(O)O)[C@H]1O [IP3]
  Kd: 75 ± 15 µM
